Results published in US20220054438A1, “KCHIP2 MODULATOR COMPOUNDS AND THEIR USE FOR THE TREATMENT OF CARDIOVASCULAR DISEASES” (CONSEJO SUPERIOR DE INVESTIGACIONES CIENTÍFICAS (CSIC), priority 2018, published 2022).
Entries after “also recorded” stand apart in the source; their conditions may differ.

Columns and labels:
KV4.3+KChIP2 channels = target: T1, KV4.3+KChIP2 channels (Homo sapiens, UniProt Q9NS61); assay: Whole-cell patch-clamp of KV4.3+KChIP2 currents in transiently transfected CHO cells; type: cell-based
T1 construct: expressed in transfected cells; host or cells: CHO cells (transient transfection)
T1 sequence (Q9NS61 1-270): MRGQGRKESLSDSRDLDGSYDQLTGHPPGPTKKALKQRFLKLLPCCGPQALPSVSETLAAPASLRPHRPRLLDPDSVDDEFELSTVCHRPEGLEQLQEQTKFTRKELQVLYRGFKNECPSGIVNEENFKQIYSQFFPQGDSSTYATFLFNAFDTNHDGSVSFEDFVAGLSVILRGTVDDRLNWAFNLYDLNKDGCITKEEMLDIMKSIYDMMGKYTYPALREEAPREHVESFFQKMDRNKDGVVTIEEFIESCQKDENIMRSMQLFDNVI
T1 sequence (Q9UK17 1-655 partner): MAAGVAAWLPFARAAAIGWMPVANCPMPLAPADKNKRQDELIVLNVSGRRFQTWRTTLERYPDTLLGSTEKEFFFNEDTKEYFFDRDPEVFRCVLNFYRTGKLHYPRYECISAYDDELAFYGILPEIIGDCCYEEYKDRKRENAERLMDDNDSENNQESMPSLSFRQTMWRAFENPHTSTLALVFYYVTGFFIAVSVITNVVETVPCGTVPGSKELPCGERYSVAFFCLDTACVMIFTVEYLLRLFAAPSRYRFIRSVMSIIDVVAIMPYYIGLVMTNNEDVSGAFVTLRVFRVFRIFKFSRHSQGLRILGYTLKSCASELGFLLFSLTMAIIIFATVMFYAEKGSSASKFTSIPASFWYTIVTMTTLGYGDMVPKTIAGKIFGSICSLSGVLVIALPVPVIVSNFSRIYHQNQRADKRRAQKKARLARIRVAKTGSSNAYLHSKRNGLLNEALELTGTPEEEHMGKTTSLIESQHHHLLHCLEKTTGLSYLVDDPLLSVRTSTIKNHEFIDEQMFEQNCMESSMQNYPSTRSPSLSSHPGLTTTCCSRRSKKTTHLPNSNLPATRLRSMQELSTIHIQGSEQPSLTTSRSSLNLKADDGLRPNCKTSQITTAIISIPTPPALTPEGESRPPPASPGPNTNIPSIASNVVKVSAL
Text: (§1) Example 2. Tests of the effects of the compounds on the KV4.3/KChIP2 and KV4.3/KChIP2/DPP6 currents generated after the activation of KV4.3/KChIP2 and KV4.3/KChIP2/DPP6 channels expressed in CHO cells.
(§2) The compounds synthesized according to this invention have been evaluated in vitro in voltage clamp tests in CHO cells transiently transfected with cDNA encoding KV4.3 alone or KV4.3 in the presence of KChIP2 (KV4.3+KChIP2) and DPP6 (KV4.3+KChIP2+DPP6) using the whole-cell configuration of the patch-clamp technique. Some of the compounds activate the current generated by the activation of KV4.3+KChIP2 channels.

[1] = target: T2, KV4.3+KChIP2+DPP6 channels (Homo sapiens, UniProt Q9NS61); assay: Whole-cell patch-clamp of KV4.3+KChIP2+DPP6 currents in transiently transfected CHO cells; type: cell-based
T2 construct: expressed in transfected cells; host or cells: CHO cells (transient transfection)
T2 sequence (P42658 whole entry partner, one chain of several): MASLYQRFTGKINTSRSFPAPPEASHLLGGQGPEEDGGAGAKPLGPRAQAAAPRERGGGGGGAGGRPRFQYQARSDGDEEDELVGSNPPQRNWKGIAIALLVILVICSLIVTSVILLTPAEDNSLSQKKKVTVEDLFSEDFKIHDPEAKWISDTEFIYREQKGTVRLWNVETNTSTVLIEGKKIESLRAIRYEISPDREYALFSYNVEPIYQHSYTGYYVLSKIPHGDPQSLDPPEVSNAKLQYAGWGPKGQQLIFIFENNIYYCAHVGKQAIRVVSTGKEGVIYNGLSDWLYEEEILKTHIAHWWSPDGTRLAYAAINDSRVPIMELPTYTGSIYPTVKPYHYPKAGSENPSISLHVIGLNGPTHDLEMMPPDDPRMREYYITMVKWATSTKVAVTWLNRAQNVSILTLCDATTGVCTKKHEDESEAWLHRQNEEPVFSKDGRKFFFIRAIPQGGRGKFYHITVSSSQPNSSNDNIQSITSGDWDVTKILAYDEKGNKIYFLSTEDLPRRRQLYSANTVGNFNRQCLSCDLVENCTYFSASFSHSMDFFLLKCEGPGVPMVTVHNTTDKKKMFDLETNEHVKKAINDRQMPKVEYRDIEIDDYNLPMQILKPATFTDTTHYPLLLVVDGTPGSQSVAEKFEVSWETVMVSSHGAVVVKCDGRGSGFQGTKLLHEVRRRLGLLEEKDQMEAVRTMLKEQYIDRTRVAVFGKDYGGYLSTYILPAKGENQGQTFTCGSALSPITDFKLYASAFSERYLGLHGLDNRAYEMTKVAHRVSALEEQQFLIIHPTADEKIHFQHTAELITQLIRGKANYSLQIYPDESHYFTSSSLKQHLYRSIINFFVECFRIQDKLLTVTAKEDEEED
Text: as §1, §2

[2] = tested on: K+ current in ventricular cardiomyocytes; assay: Perforated patch-clamp of K+ current in mouse ventricular cardiomyocytes; type: cell-based, C57BL/6J mice; settings: 3 μM perfused for 3-4 minutes, +60 mV
Text: Example 3. Effects of the Compounds on the K^+ Current Recorded in Mouse Ventricular Cardiomyocytes
The cardiomyocytes were obtained after enzyme dissociation with collagenase.

## O=C(Cc1cccc(Oc2ccccc2)c1)Nc1cc2ccccc2cc1C(=O)O [Compound 22bis, 3-[2-(3-phenoxyphenyl)acetylamino]-2-naphthoic acid]
KV4.3+KChIP2 channels; 3 μM, CHO cells, depolarizing pulses at +60 mV
  charge measured as the area under the current record: increases the charge; also recorded: produced an increase in the charge
KV4.3+KChIP2 channels; 3 μM, FIG. 1A, CHO cells
  maximum peak of the current: lowers the maximum peak
KV4.3+KChIP2 channels; 3 μM, FIG. 3
  charge-voltage relationship (Q-V): increase in the charge of the KV4.3/KChIP2 and KV4.3/KChIP2/DPP6 current which turned out to be significant at potentials positive than 0 mV
KV4.3+KChIP2 channels; all concentrations tested except 0.01 μM, FIG. 2, +60 mV
  decrease in the peak versus decrease in the charge, concentration dependence: decrease in the peak that was significantly greater than that of the charge
[1]; 3 μM, FIG. 1B, compared with KV4.3+KChIP2
  current activating effect: more pronounced in the presence of the DPP6 subunit
[1]; 3 μM, FIG. 3
  charge-voltage relationship (Q-V): increase in the charge of the KV4.3/KChIP2 and KV4.3/KChIP2/DPP6 current which turned out to be significant at potentials positive than 0 mV; also recorded: greater than in KV4.3/KChIP2 channels
[1]; FIG. 2B, +60 mV, compared with KV4.3/KChIP2
  charge, concentration dependence: increase in the charge more pronounced
[2]
  decay (inactivation) time constant of the K+ current: without modifying the decay time constant
  maximum peak K+ current: significant increase in the maximum peak current
